Test results: article PMC7719768, “Glycogen Phosphorylase: A Drug Target of Amino Alcohols in Echinococcus granulosus, Predicted by a Computer-Aided Method” (Frontiers in Microbiology, 2020)

Assays:
[1] = target: T1, Rabbit muscle Gp (recombinant rabbit Gp) (Oryctolagus cuniculus, UniProt P00489); experiment: glycogen degradation coupled to phosphoglucomutase and glucose-6-phosphate dehydrogenase, NADPH at […] nm; format: biochemical; details: read-out: IC50/LC50 (μM) / Gp / Rabbit muscle
T1 construct: gene PYGM; called recombinant rabbit Gp in the methods
T1 sequence (P00489 2-843): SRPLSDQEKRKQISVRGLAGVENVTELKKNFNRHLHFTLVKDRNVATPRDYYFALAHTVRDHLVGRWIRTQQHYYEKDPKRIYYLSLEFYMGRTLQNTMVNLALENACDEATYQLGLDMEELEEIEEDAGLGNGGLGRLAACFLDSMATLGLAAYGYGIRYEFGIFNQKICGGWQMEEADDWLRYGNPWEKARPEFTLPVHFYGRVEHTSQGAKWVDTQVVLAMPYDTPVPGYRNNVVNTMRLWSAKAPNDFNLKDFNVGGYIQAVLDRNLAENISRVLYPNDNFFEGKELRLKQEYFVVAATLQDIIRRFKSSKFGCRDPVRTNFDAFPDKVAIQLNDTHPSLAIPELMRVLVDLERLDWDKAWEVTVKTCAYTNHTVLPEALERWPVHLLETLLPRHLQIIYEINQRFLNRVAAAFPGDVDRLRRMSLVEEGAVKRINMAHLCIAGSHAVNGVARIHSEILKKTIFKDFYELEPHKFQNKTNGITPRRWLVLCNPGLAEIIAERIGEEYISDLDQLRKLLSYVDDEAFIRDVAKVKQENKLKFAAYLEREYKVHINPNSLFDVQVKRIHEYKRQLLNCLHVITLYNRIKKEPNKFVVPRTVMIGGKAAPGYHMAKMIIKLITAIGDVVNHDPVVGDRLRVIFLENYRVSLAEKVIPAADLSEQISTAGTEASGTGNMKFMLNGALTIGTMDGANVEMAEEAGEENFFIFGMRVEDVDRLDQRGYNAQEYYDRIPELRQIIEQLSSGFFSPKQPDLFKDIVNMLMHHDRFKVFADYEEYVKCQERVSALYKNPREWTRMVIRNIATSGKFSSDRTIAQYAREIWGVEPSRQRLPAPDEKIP

[2] = target: T2, E. granulosus PSC Gp (EgGps: EgGp1 and EgGp2); experiment: as above; format: biochemical, Echinococcus granulosus; details: protoscolex homogenate; 2 mg/ml glycogen, 1 mM AMP, 5 mM MgCl2, Tris-HCl, 25 °C; 2 min pre-incubation; read-out: IC50/LC50 (μM) / Gp / E. granulosus PSC
T2 construct: native enzyme in protoscolex homogenate, not purified; band at 96 kD; MN562583 = EgGp1, MN562584 = EgGp2; EgrG_000501500.1 is printed for Gp without saying which gene

Row | Compound | IC50 [1] [µM] | IC50 [2] [µM]
1 | C[C@H]1[C@H](C)CC[C@]2(C(=O)O)CC[C@]3(C)C(=CC[C@@H]4[C@@]5(C)CC[C@H](O)C(C)(C)[C@@H]5CC[C@]43C)[C@H]12 [UA, ursolic acid] | 5.47 | > 438
2 | OC(c1cc(C(F)(F)F)nc2c(C(F)(F)F)cccc12)C1CCCCN1 (stereo not shown) [MEF, mefloquine] | > 438 | 128
